“Also recorded” adds a separate entry of the source. Where no end group is shown, it is not given here. [ ]: non-standard residue; d: D form. βAla = NCCC(=O)O
How the values were obtained:
[1] = system: IL-4 receptors; details: cited from earlier work
[2] = system: macrophages; details: cited from earlier work
[3] = target: T1, type I IL-4R (Homo sapiens, UniProt P24394); details: Klementiv 2013; cited from earlier work
T1 sequence (P24394 26-825): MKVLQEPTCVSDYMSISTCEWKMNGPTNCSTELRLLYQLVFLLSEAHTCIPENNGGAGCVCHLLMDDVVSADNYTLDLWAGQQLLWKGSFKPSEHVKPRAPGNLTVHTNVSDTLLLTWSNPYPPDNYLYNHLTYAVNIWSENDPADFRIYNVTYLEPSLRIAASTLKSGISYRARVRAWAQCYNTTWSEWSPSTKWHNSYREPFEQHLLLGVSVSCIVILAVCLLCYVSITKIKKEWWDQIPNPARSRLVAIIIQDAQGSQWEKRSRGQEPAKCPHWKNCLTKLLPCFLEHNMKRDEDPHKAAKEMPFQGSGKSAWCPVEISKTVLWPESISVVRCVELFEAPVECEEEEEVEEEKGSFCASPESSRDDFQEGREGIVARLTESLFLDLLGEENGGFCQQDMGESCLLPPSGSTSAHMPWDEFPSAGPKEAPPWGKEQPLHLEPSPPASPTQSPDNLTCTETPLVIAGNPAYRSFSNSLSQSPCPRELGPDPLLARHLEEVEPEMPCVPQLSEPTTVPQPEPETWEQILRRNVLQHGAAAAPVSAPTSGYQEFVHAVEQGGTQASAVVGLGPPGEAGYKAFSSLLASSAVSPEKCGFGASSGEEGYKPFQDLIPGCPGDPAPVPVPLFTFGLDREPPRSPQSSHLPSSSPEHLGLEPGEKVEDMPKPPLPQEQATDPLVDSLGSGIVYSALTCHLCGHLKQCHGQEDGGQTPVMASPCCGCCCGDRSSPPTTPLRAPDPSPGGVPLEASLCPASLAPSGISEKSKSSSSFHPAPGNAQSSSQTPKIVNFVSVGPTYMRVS
T1 sequence (P31785 23-369 partner): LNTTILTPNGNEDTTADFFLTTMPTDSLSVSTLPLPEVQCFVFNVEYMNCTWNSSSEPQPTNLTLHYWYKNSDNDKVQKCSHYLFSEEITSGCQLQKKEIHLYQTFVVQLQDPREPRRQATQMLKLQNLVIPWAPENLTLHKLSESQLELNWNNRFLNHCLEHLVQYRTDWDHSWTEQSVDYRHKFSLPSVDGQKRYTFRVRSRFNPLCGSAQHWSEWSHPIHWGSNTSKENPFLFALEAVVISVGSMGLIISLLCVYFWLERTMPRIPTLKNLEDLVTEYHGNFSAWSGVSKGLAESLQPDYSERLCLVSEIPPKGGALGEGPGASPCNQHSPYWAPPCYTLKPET

[4] = target: T2, type II IL-4R (Homo sapiens, UniProt P24394); details: Klementiv 2013; cited from earlier work
T2 sequence (P24394 26-825): T1 sequence (P24394 26-825)

[5] = system: ReninAAV UNx db/db mice; test: ReninAAV UNx db/db mice model of diabetic nephropathy, urine biomarkers; type: in vivo; details: 10 mg/kg subcutaneously once daily, compared to vehicle, spot urine at termination day 77
Description: 28 female mice (BKS.Cg-Dock7m+/+Lepradb/db BLKS, 5 weeks of age) were transferred to the Gubra Research animal unit. Throughout the habituation and study period, the animals were housed in a light-, temperature-, and humidity-controlled room with free access to food and water. All animal experiments were conducted in accordance with Gubra's bioethical guidelines, which are fully compliant with internationally accepted principles for the care and use of laboratory animals. The animals were group-housed until uni-nephrectomies, then single-housed.
The animals were terminated on day 77; blood was taken for later analysis, body weight was recorded, and spot urine was collected.
Compound A was provided by Phlogo ApS, Copenhagen, Denmark (10 mg/ml miliQ water diluted to the dose formulations). Compound A was provided as a dimeric peptide comprising two copies of the sequence AQFHRHKQLIRFLKRA (SEQ ID NO: 1). […]
Urine samples were stored at minus 80° C. until analysis. […] Urine albumin was measured using a commercial ELISA kit (Bethyl Laboratories, Inc.), according to the manufacturer's instructions, and urine creatinine was measured using a commercial kit (Roche Diagnostics) on the Cobas c 501 autoanalyzer, according to the manufacturer's instructions. Urinary KIM-1 was measured using a commercial ELISA kit (R&D Systems) according to the manufacturer's instructions.

**Q.** With “AQFHRHKQLIRFLKRA [SEQ ID NO:1, IL-4 derived peptide, variant of AA71-AA86 of IL-4 with two amino acid substitutions]” as the substance, how does the “Binding to the IL-4 receptors” value [1] read?
**A.** Its value is “capable of binding to the IL-4 receptors”.

**Q.** And the Macrophage activation [2]?
**A.** The Macrophage activation was “inhibiting macrophage activation”.

**Q.** What about the “Mode of action on type I IL-4R” value [3] of the same substance?
**A.** Its value is “high affinity partial agonist”.

**Q.** And the “Mode of action on type II IL-4R” value [4]?
**A.** Its value is “antagonist”.

**Q.** Which results are given for “Compound A: dimer of SEQ ID NO:1 (AQFHRHKQLIRFLKRA), two copies connected via their C-terminal through a lysine-beta-alanine linker (AQFHRHKQLIRFLKRAK[βAla]; also: dimer of two copies joined at C-termini via lysine-beta-alanine linker, Rink amide)”?
**A.** ACR (urinary albumin corrected for creatinine) [5]: significantly decreased; also recorded: significantly reduced; KIM-1/CR (urinary KIM-1 corrected for creatinine) [5]: significantly decreased; also recorded: significantly reduced
